Measurements published in patent US11045456B2, “Compositions and methods for treating COPD and other inflammatory conditions” (Georgia State University Research Foundation, Inc., priority 2015, dated 2021).

Experiments:
Format in all cases: cell-based, human
PDE4B = PDE4B mRNA expression (Q-PCR) in BEAS-2B cells stimulated with NTHi; conditions: for PDE4B mRNA expression: BEAS-2B, relative to control
Description: (§1) Bacterial strains and culture condition. Clinical isolates of NTHi strain 12 were used in this study (Ishinaga et al., EMBO J., 26(4):1150-1162, 2007). Bacteria were grown on chocolate agar plates at 37° C. in an atmosphere of 5% CO2 overnight and subsequently inoculated in brain heart infusion (BHI) broth supplemented with 3.5 μg/mL NAD and hemoglobin (BD Biosciences). After overnight incubation, the bacteria were subcultured into fresh broth and the log phase bacteria, monitored by measurement of optical density (OD) value, were washed and suspended in DMEM for in vitro cell experiments and in isotonic saline for in vivo animal experiments. For all in vitro experiments except the dose dependent experiment, NTHi was treated at multiplicity of infection (MOI) of 50.
(§2) Cell culture. All media described below were supplemented with 10% fetal bovine serum (Sigma-Aldrich). Human bronchial epithelial BEAS-2B cells were maintained in RPMI medium (Life Technologies) (ATCC® CRL-9609™). Human primary bronchial epithelial NHBE (Lonza) cells were maintained in bronchial epithelial growth media (BEGM) supplemented with BEGM SingleQuots (Jono et al., J. Biol. Chem. 277(47):45547-45557, 2002). BEAS-2B cells stably expressing human PDE4B2 (PDE4B2-stable cells) were obtained by plasmid transfection following Geneticin selection (300 μg/mL). Cells were cultured in a humidified atmosphere of 5% CO2 at 37° C.

p65 = p65 phosphorylation by Phos-tag PAGE in BEAS-2B cells; conditions: roflumilast as co-treatment with NTHi
Description: Phos-tag PAGE. Recombinant p65 proteins or nuclear extracts recovered without EDTA/EGTA were separated by SDS-PAGE, with 6% gels containing 50 μM Mn^2+-Phos-tag Acrylamide and transferred to PVDF membrane according to the manufacture's instructions (Kinoshita et al., Mol. Cell. Proteomics 5(4):749-757, 2006.

PDE4D = test: Expression of PDE4D in BEAS-2B cells; conditions: NTHi or roflumilast
[1] = system: Group A chemokines (CCL5, CCL7, CXCL10, CXCL11); test: IKKβ-CA-induced Group A-chemokine expression in PDE4B2-transfected cells; conditions: up to 10 μM
Description: Plasmids, transfections and luciferase assay. […] Empty vector was used as a control and was also added where necessary to ensure an equivalent amount of input DNA. All transient transfections were carried out in triplicate using TRANSIT-LT1® reagent (Minis) following the manufacturer's instruction.

PDE4B2 = PDE4B2 expression (RT-PCR) in BEAS-2B cells
Description: as §1, §2
Plasmids, transfections and luciferase assay. The expression plasmids, constitutively active forms of IKKα (IKKα-CA, S176E/S180E) and IKKβ (IKKβ-CA, S177E/S181E) and a dominant negative form of IκBα (IκBα-DN, S32A/S36A) were previously described (Shuto et al., Proc. Natl. Acad. Sci. USA, 98(15):8774-8779, 2001; Ishinaga et al., supra). Luciferase reporter construct of NF-κB (pGL4.32) was purchased from Promega. Human PDE4B2, p65 (RelA) and PKA-Cβ1/2 cDNA sequences were generated and inserted into the BamHI and HindIII sites of the pcDNA3.1/mycHis(−) vector. Mutant p65 and PDE4B2-D392A were generated by using PRIMESTAR® Max (Takara). Empty vector was used as a control and was also added where necessary to ensure an equivalent amount of input DNA. All transient transfections were carried out in triplicate using TRANSIT-LT1® reagent (Minis) following the manufacturer's instruction.

O=C(Nc1c(Cl)cncc1Cl)c1ccc(OC(F)F)c(OCC2CC2)c1 [roflumilast]
PDE4B expression at the mRNA level (PDE4B; BEAS-2B cells, roflumilast with NTHi, Q-PCR, dose-dependent): synergized with NTHi to up-regulate PDE4B expression | PDE4B mRNA expression (PDE4B; Rof 0.1 μM 1 h, then 1.5-hour NTHi at MOI of 25, 50, and 100): increased | PDE4B mRNA expression (PDE4B; Rof 0.01, 0.1, and 1 μM 1 h, then 1.5-hour NTHi): increased | phosphorylation of p65 (induction) (p65): induced phosphorylation of p65 | expression of PDE4D (PDE4D): up-regulated by NTHi or roflumilast but no significant synergistic effect | IKKβ-CA-induced Group A-chemokine expression ([1]; cells overexpressing PDE4B2-WT or PDE4B2-D392A): unable to fully inhibit | IKKβ-CA-induced Group A-chemokine expression ([1]; cells transfected with PDE4B2-D392A): unable to fully inhibit | expression of PDE4B2 (PDE4B2; BEAS-2B, Rof 0.1 μM with NTHi or TNF-α (10 ng/mL), semi-quantitative RT-PCR): synergistically up-regulated | PDE4B2 expression (PDE4B2; cells transfected with p65 mutants S468A, S529A and S536A but not S276A, roflumilast and NTHi): synergistically enhanced | PDE4B2 expression (PDE4B2; in IKKβ-CA- but not IKKα-CA-transfected BEAS-2B cells): synergistically enhanced | PDE4B2 expression (PDE4B2; p65-transfected cells): synergistically enhanced
